Data as given in paper PMC10800023 (Human Molecular Genetics, 2023).

Legend:
[1] = system: IL-1β; experiment: LPS-induced IL-1β in cultured BMDM; format: cell-based; conditions: Mus musculus, corticosteroid overnight, LPS 10 ng/ml 3 h
Source text: (§1) The immunosuppressive activity of corticosteroids is in part due to their inhibition of NF-κB-induced cytokines including TNF-α, IL-6, and IL-12. Furthermore, expression of some inflammatory-mediated proteins such as STAT1 is mediated via GREs, and not the NF-κB pathway. We therefore expanded murine bone marrow-derived macrophages (BMDM) in vitro, and after 5 days of culture tested the relative efficacy of different corticosteroids to prevent LPS-induced cytokine secretion.
(§2) BMDM mouse bone marrow derived macrophage (mBMDM) cultures were generated from the femur and tibia from two 7–11-week-old C57BL/6 mice. Briefly, bone marrow cells were carefully flushed out, suspended in ice-cold PBS, and spun down. After the supernatant was removed, the pelleted cells were resuspended in 2 ml (ammonium-Chloride-Potassium) ACK lysis buffer (Thermo Fisher, Cat# A1049201) and incubated for 3–4 min, followed by 14 ml ice-cold PBS, and then spun down. The pelleted cells were resuspended in 43 ml complete media [Roswell Park Memorial Institute (RPMI 1640), Gibco, Cat# 11875-093; 10% heat-inactivated fetal bovine serum (HiFBS), HyClone, Cat# SH30406.02; 1% 2 mM L-glutamine; 1% penicillin-streptomycin, Sigma, Cat# P4333-100ML; 1% MEM NEAA, Gibco, Cat# 11140-050; 1% Na Pyruvate, Gibco, Cat# 11360-070; 55 μM 2-Mercaptoethanol, Gibco, Cat#21985-023]. A total of 25 ng/ml M-CSF was added to the culture. Cells were dispensed as 200 μl per well into a 96-well tissue culture plate and incubated at 37°C, 5% CO2 for 4 days. On Day 5, media were removed and 100 μl fresh complete media containing M-CSF were added. Corticosteroids were added and cells incubated at 37°C and 5% CO2 overnight. Untreated cells were incubated with media. On Day 6, 10 ng/ml of lipopolysaccharide (LPS) was added and incubated at 37°C and 5% CO2 for 3 h followed by removal of cell media for cytokine analysis. Cytokines were measured using a Meso Scale Discovery (MSD), V-PLEX kit (V-PLEX Cat# K-15048D, www.mesoscale.com).

[2] = system: P-gp (MDR1); experiment: MDR1-MDCK permeability / P-gp efflux assay; conditions: MDCK-MDR1, pH 7.4
Experimental: (§3) To measure transport by P-gp, Madin-Darby canine kidney (MDCK) cells that had been transfected with the human P-gp (MDR1) gene were plated in a Transwell plate and cultured until polarized. MDCK cells that are not transfected with human P-gp were used as a control. Compounds were added to either the apical or the basolateral side of the cells, and transport across the membrane was measured.
(§4) Testing for permeability and MDR1 substrate assessment was done in MDCK cells transfected to overexpress human MDR1 gene that encodes efflux transporter protein (P-gp). […] Briefly, cells were maintained in Dulbecco’s modified Eagle medium (DMEM) with 10% fetal bovine serum and 1% penicillin/streptomycin in a humidified incubator at 37°C with 5% CO2. The study was performed by Absorption Systems (now Pharmaron; Exton, PA). The MDR1-MDCK and MDCK control cell lines were seeded into 12-well plates for 7 days. Integrity of monolayer tight junctions was monitored preincubation by transepithelial electrical resistance (TEER) measurement. […] The samples were withdrawn at t = 0 and 60 min from the receiver and donor compartments. Compound levels were measured by LC/MS–MS. Additionally, post-assay, cell monolayer integrity was checked with Lucifer Yellow permeability measurement. Transport assay low- and high-permeability control compounds were run in parallel for assay validation. Papp values were calculated considering compound concentrations across the monolayer and cell surface area. Efflux ratios were calculated based on Papp B > A over Papp A > B. The difference between the MDR1-MDCK and the MDCK cell efflux ratios was also calculated. […] Compounds were classified by Absorption Systems/Pharmaron as follows: […]

[3] = system: B10-mdx mice; experiment: Tail-suspension test 24 h after force-swim test (Study 2); format: in vivo, mouse; conditions: daily dosing 4 weeks, vs vehicle B10-mdx
Experimental: Corticosteroid-treated mice were subjected to the force-swim test (FST) followed by the tail-suspension test (TST) 24 h later. During the TST, normal mice will struggle and constantly move. However, mice show depression-like behavior by quickly giving up, stop moving, and remaining still for a greater percentage of the time.
Study 2: The goal of the second study was to evaluate corticosteroid side effects and efficacy in a longer study (4 months). After 28 days of dosing, mice were tested for depression-like behavior using a measure of corticosteroid-induced depression (FST followed by TST). Muscle function was tested via grip strength. Tests for depression and for grip-strength were done in a blinded manner. After 4 months, mice were euthanized, and tissues were collected. Bone from whole left leg was collected for micro-CT analysis. The number of animals per group was as follows: WT, n = 16; B10-mdx, n = 15; corticosteroid-treated groups, n = 8–10.
(§5) • 1) Force-swim test: Animals were single housed and acclimated in the behavior room for 30 min prior to test. A clean 1-L beaker was filled with 700 to 800 ml of 23°C water. Each mouse was placed into the water for 6 min. The total immobility time was recorded. After the test, the animals were dried and placed in a cage on a heating pad for about 10 min before returning to the home cages. • 2) Tail-suspension test: Isolated mice were suspended 50 cm above the floor by surgical tape placed approximately 1 cm from the tip of the tail for 6 min. The total immobility time of mice was measured. Mice were considered immobile only when they hung passively and completely motionless.

[4] = MDCK control cell permeability (not transfected with human P-gp); conditions: dog, pH 7.4
Experimental: as §3, §4

[5] = system: B10-mdx mice; experiment: RNA-sequencing of tissues after 2 weeks of treatment (Study 1); conditions: vs vehicle-treated B10-mdx
[6] = system: C57BL/6 mice; experiment: Tail-suspension test in WT mice after 35 days (Study 3); format: in vivo, mouse; conditions: daily for 35 days, prednisolone 15 mg/kg or vamorolone 45 mg/kg
Experimental: In the CNS of these miceFkbp5 mRNA and Ddrd4 mRNA levels were increased (Supplementary Fig. S3d and e). Expression of FKBP5 is reported to be GRE regulated, and Drd4 is a reported biomarker of depression.
as §5

[7] = system: IFN-γ; experiment: LPS-induced IFN-γ in cultured BMDM; format: cell-based; conditions: Mus musculus, corticosteroid overnight, LPS 10 ng/ml 3 h
Source text: as §1, §2

[8] = doses tested (deflazacort 1.25-15 mg/kg; vamorolone all doses 15, 30, 45 mg/kg)

Row | EC50 [1] | Papp at 60 min [2] | efflux ratio at 60 min, 1 μM [2] | efflux ratio at 60 min, 10 μM [2] | Papp A→B at 60 min, 10 μM [4] | Papp B→A at 60 min, 1 μM [4] | Papp B→A at 60 min, 10 μM [4] | efflux ratio at 60 min, 1 μM [4] | efflux ratio at 60 min, 10 μM [4] | depression-like behavior as measured by the TST [6] | EC50 [7] | Compound | immobilization time in tail suspension test [3, 8] | Number of genes, Quadriceps, Down-regulated ([5]; 15 mg/kg daily) | Number of genes, Quadriceps, No Change ([5]; 15 mg/kg daily) | Number of genes, Quadriceps, Up-regulated ([5]; 15 mg/kg daily) | Number of genes, Whole Brain, Down-regulated ([5]; 15 mg/kg daily) | Number of genes, Whole Brain, No Change ([5]; 15 mg/kg daily) | Number of genes, Whole Brain, Up-regulated ([5]; 15 mg/kg daily) | Number of genes, Quadriceps, Down-regulated ([5]; 5 mg/kg daily) | Number of genes, Quadriceps, No Change ([5]; 5 mg/kg daily) | further results
1 | 32 nM | > 3 ×10⁻⁶ cm/s | 6.84 | 6.42 | 33.4 ×10⁻⁶ cm/s | 25.2 ×10⁻⁶ cm/s | 22.7 ×10⁻⁶ cm/s | 0.755 | 0.746 | induced depression-like behavior | 0.8 nM | C[C@@H]1C[C@H]2[C@@H]3CCC4=CC(=O)C=C[C@]4(C)C3=CC[C@]2(C)[C@@]1(O)C(=O)CO [Vamorolone] | increased the immobilization time significantly | 3014 | 9369 | 3927 | 138 | 16068 | 104 |  |  | Number of genes, Quadriceps, Down-regulated ([5]; 30 mg/kg daily): 3138; Number of genes, Quadriceps, No Change ([5]; 30 mg/kg daily): 10053; Number of genes, Quadriceps, Up-regulated ([5]; 30 mg/kg daily): 3119; Number of genes, Whole Brain, Down-regulated ([5]; 30 mg/kg daily): 2087; Number of genes, Whole Brain, No Change ([5]; 30 mg/kg daily): 11760; Number of genes, Whole Brain, Up-regulated ([5]; 30 mg/kg daily): 2463; Number of genes, Quadriceps, Down-regulated ([5]; 45 mg/kg daily): 331; Number of genes, Quadriceps, No Change ([5]; 45 mg/kg daily): 15364; Number of genes, Quadriceps, Up-regulated ([5]; 45 mg/kg daily): 615; Number of genes, Whole Brain, Down-regulated ([5]; 45 mg/kg daily): 1114; Number of genes, Whole Brain, No Change ([5]; 45 mg/kg daily): 14218; Number of genes, Whole Brain, Up-regulated ([5]; 45 mg/kg daily): 978
2 | 1.3 nM | < 3 ×10⁻⁶ cm/s | 60.2 | 58.4 | 6.66 ×10⁻⁶ cm/s | 11.6 ×10⁻⁶ cm/s | 6.7 ×10⁻⁶ cm/s | 0.949 | 1.01 |  | 0.29 nM | CC(=O)OCC(=O)[C@@]12N=C(C)O[C@@H]1C[C@H]1[C@@H]3CCC4=CC(=O)C=C[C@]4(C)[C@H]3[C@@H](O)C[C@@]12C [Deflazacort] | did not increase | 5462 | 5024 | 5824 | 231 | 15981 | 98 | 5354 | 4889 | Papp A→B at 60 min, 1 μM [4]: 12.3 ×10⁻⁶ cm/s; Number of genes, Quadriceps, Down-regulated ([5]; 1.25 mg/kg daily): 4245; Number of genes, Quadriceps, No Change ([5]; 1.25 mg/kg daily): 7767; Number of genes, Quadriceps, Up-regulated ([5]; 1.25 mg/kg daily): 4298; Number of genes, Whole Brain, Down-regulated ([5]; 1.25 mg/kg daily): 31; Number of genes, Whole Brain, Up-regulated ([5]; 1.25 mg/kg daily): 1; Number of genes, Quadriceps, Down-regulated ([5]; 2.5 mg/kg daily): 3706; Number of genes, Quadriceps, No Change ([5]; 2.5 mg/kg daily): 9024; Number of genes, Quadriceps, Up-regulated ([5]; 2.5 mg/kg daily): 3580; Number of genes, Whole Brain, Down-regulated ([5]; 2.5 mg/kg daily): 4; Number of genes, Whole Brain, No Change ([5]; 2.5 mg/kg daily): 16306; Number of genes, Whole Brain, Up-regulated ([5]; 2.5 mg/kg daily): 0; Number of genes, Quadriceps, Up-regulated ([5]; 5 mg/kg daily): 6067; Number of genes, Whole Brain, Down-regulated ([5]; 5 mg/kg daily): 39; Number of genes, Whole Brain, No Change ([5]; 5 mg/kg daily): 16214; Number of genes, Whole Brain, Up-regulated ([5]; 5 mg/kg daily): 57
3 | 3 nM |  |  |  |  |  |  |  |  | induced depression-like behavior | 0.5 nM | C[C@]12C=CC(=O)C=C1CC[C@@H]1[C@@H]2[C@@H](O)C[C@@]2(C)[C@H]1CC[C@]2(O)C(=O)CO [Prednisolone] |  |  |  |  |  |  |  | 4173 | 7883 | immobilization time in tail suspension test ([3]; high dose (5 mg/kg)): increased the immobilization time significantly; Number of genes, Quadriceps, Down-regulated ([5]; 1.2 mg/kg daily): 3855; Number of genes, Quadriceps, No Change ([5]; 1.2 mg/kg daily): 8205; Number of genes, Quadriceps, Up-regulated ([5]; 1.2 mg/kg daily): 4250; Number of genes, Quadriceps, Down-regulated ([5]; 2.4 mg/kg daily): 5216; Number of genes, Quadriceps, Up-regulated ([5]; 2.4 mg/kg daily): 6030; Number of genes, Quadriceps, Up-regulated ([5]; 5 mg/kg daily): 4254
